What follows are compounds tested against T1, TNF-α (Homo sapiens, UniProt P01375) (assay: TNF-α Induced HEK Blue Cellular Assay (secreted alkaline phosphatase expression, QUANTI-Blue)). Conditions: HEK Blue TNFα reporter cells; TNF-α 100 μg/ml; 24 hrs at 37° C.; inhibition of secreted alkaline phosphatase; read-out: IC50 value.
T1 construct: purchased R&D 210-TA-020/CF
T1 sequence (P01375 77-233 limits assumed): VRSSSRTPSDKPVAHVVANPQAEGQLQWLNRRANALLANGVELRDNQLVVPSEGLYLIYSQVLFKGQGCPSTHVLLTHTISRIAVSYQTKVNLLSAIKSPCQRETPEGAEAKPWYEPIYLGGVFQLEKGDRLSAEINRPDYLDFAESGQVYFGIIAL
Format: cell-based
Procedure: TNF-α Induced HEK Blue Cellular Assay
Test articles were diluted in DMSO and serially diluted into 384 well assay plate (Corning 3765), at final concentrations ranging from […] to 0.5 nM. HEK Blue™ TNFα reporter cells were added at a final density of 10,000 cell per well in assay media [DMEM (Gibco, cat #21063-029), 10% fetal bovine serum (ExcelBio, cat #FND500), 1% Penicillin-Streptomycin (Solarbio, cat #P1400-100]. TNF-α (R&D 210-TA-020/CF) was then added to the assay plate at a final concentration of […]. This plate was then incubated for 24 hrs at 37° C. and 5% CO2. Secreted alkaline phosphatase expression was then measured using QUANTI-Blue™ (Invivogen), according to manufacturer instructions and read on an Envision microplate reader at 620 nm.
Inhibition data for test compound over a range of concentration was plotted as percentage inhibition of the test compound (100%=maximum inhibition). IC50 values were determined after correcting for background [(sample read-mean of low control)/(mean of high control-mean of low control)] whereby the low control is DMSO without stimulation and high control is DMSO with stimulation. The IC50 is defined as the concentration of test compound which produces 50% inhibition and was quantified using the 4 parameter logistic equation to fit the data.
An IC50 of less than 0.1 µM was found for `[2H]C([2H])([2H])N1C(=O)c2cccc(OC(F)F)c2[C@H]2C[C@@H]1c1nc3ccc(C#CC4CCN(C(C)=O)CC4)cc3n12` [Example 173, (7R,14R)-11-((1-acetylpiperidin-4-yl)ethynyl)-1-(difluoromethoxy)-6-(methyl-d3)-6,7-dihydro-7,14-methanobenzo[f]benzo[4,5]imidazo[1,2-a][1,4]diazocin-5(14H)-one] in this work. An IC50 of less than 0.1 µM was found for `[2H]C([2H])([2H])N1C(=O)c2cccc(OC(F)F)c2[C@H]2C[C@@H]1c1nc3ccc(C#C[C@H](C)COC)cc3n12` [Example 142, (7R,14R)-1-(difluoromethoxy)-11-((S)-4-methoxy-3-methylbut-1-yn-1-yl)-6-(methyl-d3)-6,7-dihydro-7,14-methanobenzo[f]benzo[4,5]imidazo[1,2-a][1,4]diazocin-5(14H)-one] in this work. An IC50 of less than 0.1 µM was found for `[2H]C([2H])([2H])N1C(=O)c2cccc(OC(F)F)c2[C@H]2C[C@@H]1c1nc3ccc(C#CCOC4CCN(C)CC4)cc3n12` [Example 115, (7R,14R)-1-(difluoromethoxy)-6-(methyl-d3)-11-(3-((1-methylpiperidin-4-yl)oxy)prop-1-yn-1-yl)-6,7-dihydro-7,14-methanobenzo[f]benzo[4,5]imidazo[1,2-a][1,4]diazocin-5(14H)-one] in this work. An IC50 of less than 0.1 µM was found for `[2H]C([2H])([2H])N1C(=O)c2cccc(OC(F)F)c2[C@H]2C[C@@H]1c1nc3ccc(C#Cc4nnc(NC(C)=O)s4)cc3n12` [Example 260, N-(5-(((7R,14R)-1-(difluoromethoxy)-6-(methyl-d3)-5-oxo-5,6,7,14-tetrahydro-7,14-methanobenzo[f]benzo[4,5]imidazo[1,2-a][1,4]diazocin-11-yl)ethynyl)-1,3,4-thiadiazol-2-yl)acetamide] in this work. An IC50 of 0.1 to 1 µM was found for `[2H]C([2H])([2H])N1C(=O)c2cccc(OC(F)F)c2[C@H]2C[C@@H]1c1nc3ccc(C#CC4(C)CN(C(=O)C5(C)CC5)C4)cc3n12` [Example 165, (7R,14R)-1-(difluoromethoxy)-6-(methyl-d3)-11-((3-methyl-1-(1-methylcyclopropane-1-carbonyl)azetidin-3-yl)ethynyl)-6,7-dihydro-7,14-methanobenzo[f]benzo[4,5]imidazo[1,2-a][1,4]diazocin-5(14H)-one] in this work. An IC50 of less than 0.1 µM was found for `[2H]C([2H])([2H])N1C(=O)c2cccc(OC(F)F)c2[C@H]2C[C@@H]1c1nc3ccc(C#CC4CN(C5COC5)C4(C)C)cc3n12` (stereo partly drawn) [Example 256, (7R,14R)-1-(difluoromethoxy)-11-((2,2-dimethyl-1-(oxetan-3-yl)azetidin-3-yl)ethynyl)-6-(methyl-d3)-6,7-dihydro-7,14-methanobenzo[f]benzo[4,5]imidazo[1,2-a][1,4]diazocin-5(14H)-one] in this work. An IC50 of 0.1 to 1 µM was found for `[2H]C([2H])([2H])N1C(=O)c2cccc(OC(F)F)c2[C@H]2C[C@@H]1c1nc3ccc(C#CCOC4CCNCC4)cc3n12` [Example 117, (7R,14R)-1-(difluoromethoxy)-6-(methyl-d3)-11-(3-(piperidin-4-yloxy)prop-1-yn-1-yl)-6,7-dihydro-7,14-methanobenzo[f]benzo[4,5]imidazo[1,2-a][1,4]diazocin-5(14H)-one] in this work. An IC50 of 10 to 30 µM was found for `[2H]C([2H])([2H])N1C(=O)c2cccc(OC(F)F)c2[C@H]2C[C@@H]1c1nc3ccc(C#C[C@@H]4CCCN4)cc3n12` [Example 59, (7R,14R)-1-(difluoromethoxy)-6-(methyl-d3)-11-(((S)-pyrrolidin-2-yl)ethynyl)-6,7-dihydro-7,14-methanobenzo[f]benzo[4,5]imidazo[1,2-a][1,4]diazocin-5(14H)-one] in this work. An IC50 of less than 0.1 µM was found for `[2H]C([2H])([2H])N1C(=O)c2cccc(OC(F)F)c2[C@H]2C[C@@H]1c1nc3ccc(C#CCN4CC(F)(F)C4)cc3n12` [Example 231, (7R,14R)-11-(3-(3,3-difluoroazetidin-1-yl)prop-1-yn-1-yl)-1-(difluoromethoxy)-6-(methyl-d3)-6,7-dihydro-7,14-methanobenzo[f]benzo[4,5]imidazo[1,2-a][1,4]diazocin-5(14H)-one] in this work. An IC50 of less than 0.1 µM was found for `[2H]C([2H])([2H])N1C(=O)c2cccc(OC(F)F)c2[C@H]2C[C@@H]1c1nc3ccc(C#CCC(O)C(C)O)cc3n12` (single isomer, unassigned) [Example 244, (7R,14R)-1-(difluoromethoxy)-11-((4S or 4S,5R or 5S)-4,5-dihydroxyhex-1-yn-1-yl)-6-(methyl-d3)-6,7-dihydro-7,14-methanobenzo[f]benzo[4,5]imidazo[1,2-a][1,4]diazocin-5(14H)-one] in this work. An IC50 of 10 to 30 µM was found for `[2H]C([2H])([2H])N1C(=O)c2cccc(OC(F)F)c2[C@H]2C[C@@H]1c1nc3ccc(C#CC4CCN(C(=O)C5CC5)C4)cc3n12` (stereo partly drawn) [Example 201, (7R,14R)-11-((1-(cyclopropanecarbonyl)pyrrolidin-3-yl)ethynyl)-1-(difluoromethoxy)-6-(methyl-d3)-6,7-dihydro-7,14-methanobenzo[f]benzo[4,5]imidazo[1,2-a][1,4]diazocin-5(14H)-one] in this work. An IC50 of less than 0.1 µM was found for `[2H]C([2H])([2H])N1C(=O)c2cccc(OC(F)F)c2[C@H]2C[C@@H]1c1nc3ccc(C#Cc4cnsc4)cc3n12` [Example 36, (7R,14R)-1-(difluoromethoxy)-11-(isothiazol-4-ylethynyl)-6-(methyl-d3)-6,7-dihydro-7,14-methanobenzo[f]benzo[4,5]imidazo[1,2-a][1,4]diazocin-5(14H)-one] in this work. An IC50 of less than 0.1 µM was found for `[2H]C([2H])([2H])N1C(=O)c2cccc(OC(F)F)c2[C@H]2C[C@@H]1c1nc3ccc(C#CC4CN(C(C)C(F)F)C4)cc3n12` (stereo partly drawn) [Example 238, (7R,14R)-1-(difluoromethoxy)-11-((1-(1,1-difluoropropan-2-yl)azetidin-3-yl)ethynyl)-6-(methyl-d3)-6,7-dihydro-7,14-methanobenzo[f]benzo[4,5]imidazo[1,2-a][1,4]diazocin-5(14H)-one] in this work. An IC50 of less than 0.1 µM was found for `[2H]C([2H])([2H])N1C(=O)c2cccc(OC(F)F)c2[C@H]2C[C@@H]1c1nc3ccc(C#CC4CCNCC4)cc3n12` [Example 52, (7R,14R)-1-(difluoromethoxy)-6-(methyl-d3)-11-(piperidin-4-ylethynyl)-6,7-dihydro-7,14-methanobenzo[f]benzo[4,5]imidazo[1,2-a][1,4]diazocin-5(14H)-one] in this work. An IC50 of 0.1 to 1 µM was found for `[2H]C([2H])([2H])N1C(=O)c2cccc(OC(F)F)c2[C@H]2C[C@@H]1c1nc3ccc(C#CCCN(C)C)cc3n12` [Example 163, (7R,14R)-1-(difluoromethoxy)-11-(4-(dimethylamino)but-1-yn-1-yl)-6-(methyl-d3)-6,7-dihydro-7,14-methanobenzo[f]benzo[4,5]imidazo[1,2-a][1,4]diazocin-5(14H)-one] in this work. An IC50 of less than 0.1 µM was found for `[2H]C([2H])([2H])N1C(=O)c2cccc(OC(F)F)c2[C@H]2C[C@@H]1c1nc3ccc(C#CC4COC4)cc3n12` [Example 80, (7R,14R)-1-(difluoromethoxy)-6-(methyl-d3)-11-(oxetan-3-ylethynyl)-6,7-dihydro-7,14-methanobenzo[f]benzo[4,5]imidazo[1,2-a][1,4]diazocin-5(14H)-one] in this work. An IC50 of less than 0.1 µM was found for `[2H]C([2H])([2H])N1C(=O)c2cccc(OC(F)F)c2[C@H]2C[C@@H]1c1nc3ccc(C#CCCC4CC4)cc3n12` (single isomer, unassigned) [Example 137] in this work. An IC50 of 0.1 to 1 µM was found for `[2H]C([2H])([2H])N1C(=O)c2cccc(OC(F)F)c2[C@H]2C[C@@H]1c1nc3ccc(C#CC4(C)CN(CC(F)(F)F)C4)cc3n12` [Example 178, (7R,14R)-1-(difluoromethoxy)-6-(methyl-d3)-11-((3-methyl-1-(2,2,2-trifluoroethyl)azetidin-3-yl)ethynyl)-6,7-dihydro-7,14-methanobenzo[f]benzo[4,5]imidazo[1,2-a][1,4]diazocin-5(14H)-one] in this work. An IC50 of less than 0.1 µM was found for `[2H]C([2H])([2H])N1C(=O)c2cccc(OC(F)F)c2[C@H]2C[C@@H]1c1nc3ccc(C#CC4CCN(C(=O)C5CC5)CC4)cc3n12` [Example 174, (7R,14R)-11-((1-(cyclopropanecarbonyl)piperidin-4-yl)ethynyl)-1-(difluoromethoxy)-6-(methyl-d3)-6,7-dihydro-7,14-methanobenzo[f]benzo[4,5]imidazo[1,2-a][1,4]diazocin-5(14H)-one] in this work. An IC50 of 0.1 to 1 µM was found for `[2H]C([2H])([2H])N1C(=O)c2cccc(OC(F)F)c2[C@H]2C[C@@H]1c1nc3ccc(C#CCOc4ccccc4)cc3n12` [Example 79, (7R,14R)-1-(difluoromethoxy)-6-(methyl-d3)-11-(3-phenoxyprop-1-yn-1-yl)-6,7-dihydro-7,14-methanobenzo[f]benzo[4,5]imidazo[1,2-a][1,4]diazocin-5(14H)-one] in this work. An IC50 of less than 0.1 µM was found for `[2H]C([2H])([2H])N1C(=O)c2cccc(OC(F)F)c2[C@H]2C[C@@H]1c1nc3ccc(C#CC4CC(C)(C#N)C4)cc3n12` (stereo partly drawn) [Example 159, 3-(((7R,14R)-1-(difluoromethoxy)-6-(methyl-d3)-5-oxo-5,6,7,14-tetrahydro-7,14-methanobenzo[f]benzo[4,5]imidazo[1,2-a][1,4]diazocin-11-yl)ethynyl)-1-methylcyclobutane-1-carbonitrile] in this work. An IC50 of 0.1 to 1 µM was found for `[2H]C([2H])([2H])N1C(=O)c2cccc(OC(F)F)c2[C@H]2C[C@@H]1c1nc3ccc(C#CC(C)OCC)cc3n12` (stereo partly drawn) [Example 78, (7R,14R)-1-(difluoromethoxy)-11-(3-ethoxybut-1-yn-1-yl)-6-(methyl-d3)-6,7-dihydro-7,14-methanobenzo[f]benzo[4,5]imidazo[1,2-a][1,4]diazocin-5(14H)-one] in this work.

From patent publication US20260365682A1, “MODULATORS OF TNF-ALPHA ACTIVITY” (Forward Therapeutics, Inc., priority 2022, published 2026)
